Key:
[1] = tested on: intestinal bacteria; test: Bacterial culture test, 5% diluted solution of stool from one subject; assay type: cell-based; conditions: 10 ml 5% stool suspension + 15 ml test solution
Method: With respect to Example 2 in which xylitol was used as the first cleansing ingredient, in order to test the antibacterial effect of the solution against intestinal bacteria, a 5% diluted solution of stool was prepared from a stool sample obtained from one subject. […] Then, each of these mixed solutions was split in half and submitted to two different testing institutions, the Seoul Medical Science Institute (SCL), which is a CAP accredited and KSLM/Laboratory Medicine Foundation accredited institution, and the Green Cross Laboratories (GC Labs), which is a KSLM accredited institution, for bacterial culture tests.

[2] = 15 g intravenously over 30 minutes twice weekly for four weeks; phase I study 2013; cited from earlier work
[3] = tested on: intestinal bacteria; test: Bacterial culture test of mixed stool/test solutions after gas measurement; assay type: cell-based; conditions: average; mixed solutions cultured for 48 hours at SCL
Method: Following the measurement of gas concentration as described above, the mixed solutions in the containers were submitted to a laboratory at the Seoul Medical Science Institute (SCL), a CAP accredited and Korean Society for Laboratory Medicine (KSLM)/Laboratory Medicine Foundation accredited institution, where they were cultured for 48 hours and measured for the resulting colony counts.

[4] = scale proposed by Nunes et al. 2008; cited from earlier work

SMILES: OC[C@@H](O)[C@H](O)[C@@H](O)CO [Reference Example 6, xylitol]
- Colony count (GC Labs) ([1]; Green Cross Laboratories): 10.2 × 10^6 CFU/mL
- Colony count (SCL) ([1]; Seoul Medical Science Institute): 60 × 10^6 CFU/mL

SMILES: O=C1O[C@H]([C@@H](O)CO)C(O)=C1O [ascorbic acid]
- blood ascorbic acid level [2]: at least 350 mg/dL

SMILES: OC[C@@H](O)[C@@H](O)[C@H](O)[C@@H](O)CO [compound 4, sorbitol]
- Colony count [3]: 4.5 × 10^8 CFU/mL

SMILES: OC[C@@H](O)[C@@H](O)[C@H](O)[C@H](O)CO [compound 5, mannitol]
- Colony count [3]: 4.0 × 10^8 CFU/mL

SMILES: OC[C@@H](O)[C@@H](O)[C@H](O)[C@H](O)CO [mannitol]
- rate of adequate bowel cleansing [4]: 75%

— US20150342937A1, “BOWEL CLEANSING COMPOSITION” (priority 2013, published 2015)
